Source: US9522164B2, “Disulfide chemotherapeutic agents and methods of use thereof” (Lankenau Institute for Medical Research, priority 2007, dated 2016)

Key:
[1] = test system: HCT116 cells; test: Colony assay, HEDS plus 4 Gy irradiation; format: cell-based, human; conditions: HCT116, absence of glucose, HEDS 1 hour before 4 Gy irradiation
Experimental: For FIG. 2, HCT116 cells were deprived of glucose for 4 hours, treated with various concentrations of HEDS for 1 hour, and then exposed to 4 Gy irradiation. Two hours after irradiation, the cells were washed and replenished with fresh growth medium. The colony assay was then performed as described above for FIG. 1.

[2] = test system: prostate cancer cell line (DU145); test: Radiation response (survival after 4Gy γ irradiation) with HEDS; format: cell-based, human; conditions: DU145, absence of glucose
Text: (§1) FIGS. 17 and 18 show the impact of HEDS on the radiation response of a breast cancer cell line (MCF7) and a prostate cancer cell line (DU145) in the presence and absence of glucose.

[3] = test system: breast cancer cell line (MCF7); test: as above; format: cell-based, human; conditions: MCF7, absence of glucose
Text: as §1

[4] = test system: HT29 cells; test: Colony assay, HEDS plus 4 Gy irradiation; format: cell-based, human; conditions: HT29, absence of glucose, HEDS 1 hour before 4 Gy irradiation
Experimental: (§2) For FIG. 3, radiation resistant human colon cancer cells HT29 were deprived of glucose for 4 hours and then treated with various concentrations of HEDS for 3 hours. The cells were washed and replenished with fresh growth medium. For FIG. 4, HT29 cells were deprived of glucose for 4 hours, treated with various concentrations of HEDS, and then treated for 1 hour before 4 Gy irradiation. Two hours after irradiation, the cells were washed and replenished with fresh growth medium. Colony assays were carried out by plating cells at concentration that gives no more than 200 colonies. Each experiment was repeated at least three times with errors as shown unless smaller than points plotted. […]

[5] = test system: radiation resistant human colon cancer cells HT29; test: Clonogenic (colony) assay, HEDS alone; format: cell-based
Experimental: as §2

[6] = test system: breast tumor xenografts; test: Response of tumor xenografts in rats to etoposide with HEDS; format: in vivo; conditions: HEDS 10 mg/kg/day IP one hour before etoposide 12 mg/Kg/day IP, three consecutive days, tumor about 8×8 mm
Experimental: The use of HEDS, an oxidant/disulfide, to increase the response of tumor xenografts to topoisomerase II inhibitor, etoposide, was also investigated. […] The effect of HEDS (0 and 10 mg/kg/day) on the response of tumor to etoposide (12 mg/Kg/day) was determined in rats with tumor of approximately 8×8 mm in size. HEDS in physiological saline was administered at 0 and 10 mg/kg via IP injections. At one hour after HEDS administration, etoposide was administered to these rats by IP. This treatment was continued for three consecutive days. Tumor growth was measured twice a week for up to two weeks.

[7] = test system: human colon cancer cells HCT116; test: Depletion of intracellular thiols (Ellman's reagent); format: cell-based; conditions: HEDS 3 hours
Experimental: (§3) The depletion of intracellular thiols by HEDS in human colon cancer cells HCT116 and HT29 was determined by first depriving the cells of glucose for 4 hours. After three hours of HEDS treatment, the attached cells were washed with cell rinse and lysed with 1 ml of sulphosalicyclic acid (SSA) lysis buffer. The samples were then centrifuged at high speed in a Fisher 59A microfuge and the supernatant was used for quantification of intracellular thiols using Ellman's reagent. Each experiment was repeated at least three times with errors as shown unless smaller than points plotted.
For the estimation of intracellular thiols in HCT116 cells, the cells were incubated with different concentrations of glucose for 4 hours. For FIG. 12, the cells were then treated with HEDS for 3 hours. After treatment, the attached cells were washed with cell rinse and lysed with 1 ml of sulphosalicyclic acid (SSA) lysis buffer. The samples were centrifuged at high speed in a Fisher 59A microfuge and the supernatant was used for quantification of intracellular thiols using Ellman's reagent. Each experiment was repeated at least three times with errors as shown unless smaller than points plotted.

[8] = test system: human colon cancer cells HT29; test: as above; format: cell-based; conditions: HEDS 3 hours
Experimental: as §3, with “The depletion of intracellular thiols by HEDS in human colon cancer cells HCT116 and HT29 was determined by first depriving the cells of glucose for 4 hours.” left out

[9] = test system: radiation sensitive human colon cancer cells HCT116; test: Clonogenic (colony) assay, HEDS alone; format: cell-based
Experimental: In FIG. […] The cells were washed and replenished with fresh growth medium. Colony assays were carried out by plating cells at concentration that gives no more than 200 colonies. Each experiment was repeated at least three times with errors as shown unless smaller than points plotted.

[10] = test system: breast tumor xenograft; test: Breast tumor xenograft model in rats, MPG disulfide with or without cisplatin; format: in vivo
Experimental: (§4) The efficacy of MPG disulfide in improving the response to cisplatin in the breast tumor xenograft model in rats was tested. MPG disulfide was tested against two different tumor sizes. These different tumor sizes were achieved by growing the tumor in rats for up to 6 days (small tumor, FIG. 13) or 12 days (large tumor, FIGS. 14 and 15). MPG disulfide was determined to be non-toxic to the animals.
(§5) The response of tumors to MPG disulfide was determined in rats with either small tumors (approximately 139 mm^3) or large tumors (approximately 2837 mm^3). MPG disulfide in physiological saline was administered at 40 mg/Kg/day via IP injections. The control animals were treated with saline. This treatment was continued for three consecutive days. […] Each group (control or MPG disulfide) consists of at least three animals. Each data point is mean of at least three animals with standard error as shown unless smaller than points plotted.
(§6) The improved response of large tumors to cisplatin by MPG disulfide was determined in rats with tumors of approximately 2837 mm^3 in tumor volume. MPG disulfide in physiological saline was administered at 40 mg/kg/day via IP injections. At one hour after MPG disulfide administration, cisplatin (2 mg/kg) was administered to these rats by IP. MPG treatment alone without cisplatin was continued for two more days in these animals. […] Each group (cisplatin or MPG disulfide with cisplatin) consists of at least three animals. Each data point is mean of at least three animals with standard error as shown unless smaller than points plotted.

[11] = Tolerability in tumor-bearing rats; format: in vivo
Experimental: as §4, §5, §6

## OCCSSCCO [HEDS, hydroxyethyldisulfide]
[1]
  sensitization to radiation: sensitization
[2]
  radiation response: significantly increased
[3]
  radiation response: significantly increased
[4]
  sensitization to radiation: sensitization
[5]; HT29, HEDS alone 3 hours, presence of glucose
  cytotoxic effect (clonogenic survival): little/no cytotoxic effects
[5]; HT29, absence of glucose (deprived 4 hours), higher concentration of HEDS alone
  effect on survival: no significant effect
[6]
  better tumor response with HEDS and etoposide compared to etoposide alone: at least 50%
[7]; HCT116, glucose deprived 4 hours
  intracellular thiols: ≥ 40 % of the control
[7]; HCT116, low concentrations (1-3 mM) of glucose
  intracellular thiols: intracellular thiol depletion
[7]; HCT116, with glucose
  intracellular thiols: maintaining the intracellular thiols
[8]; HT29, glucose deprived 4 hours
  intracellular thiols: ≥ 40 % of the control
[8]; HT29, with glucose
  intracellular thiols: maintaining the intracellular thiols
[9]; HCT116, HEDS alone 3 hours, presence of glucose
  cytotoxic effect (clonogenic survival): little/no cytotoxic effects
[9]; HCT116, absence of glucose (deprived 4 hours), higher concentration of HEDS alone, 3 hours
  decrease in survival: 75%

## N.N.[Cl][Pt][Cl] [Cisplatin, cis-diamine-dichloroplatinum (II), reference compound]
[10]; large tumors, cisplatin alone 2 mg/kg IP
  tumor volume on day 13 after the treatment: 4355±577 mm^3
[10]; large tumors, cisplatin alone group, baseline
  tumor volume at start of treatment: 2948±180 mm^3

## CC(SSC(C)C(=O)NCC(=O)O)C(=O)NCC(=O)O (stereo not drawn) [MPG disulfide, disulfide of mercaptopropionylglycine (MPG) (glycinepropionyldisulfide)]
[11]; MPG disulfide 40 mg/Kg/day IP, three consecutive days
  observable side effects: did not cause any observable side effects
[11]; MPG disulfide 40 mg/kg/day IP with cisplatin 2 mg/kg IP, MPG continued two more days
  observable side effects: did not cause any observable side effects
[11]; rats with breast tumor xenograft
  toxicity to the animals: non-toxic
[10]; MPG disulfide in combination with cisplatin, even large tumors
  effect on tumors: completely eliminated tumors
[10]; large tumors, MPG disulfide 40 mg/kg/day IP (3 days) in combination with cisplatin 2 mg/kg IP
  tumor volume on day 13 after the start of the treatment: 112±47 mm^3
[10]; large tumors, MPG disulfide alone 40 mg/Kg/day IP, day 5 after the treatment
  increase in tumor size: 3 fold
[10]; large tumors, MPG disulfide alone group, baseline
  tumor volume at start of treatment: 2848±538 mm^3
[10]; large tumors, MPG disulfide alone, day 5 after the treatment
  tumor smaller than the untreated animals: 2.5 fold
[10]; large tumors, MPG disulfide alone, day 8
  maximum tumor size: 18,038±1289 mm^3
[10]; large tumors, MPG disulfide in combination with cisplatin, day 13
  tumor smaller compared to cisplatin group: 38 fold
[10]; large tumors, cisplatin and MPG disulfide combination group, baseline
  tumor volume at start of treatment: 2402±218 mm^3
[10]; small tumors, MPG disulfide alone 40 mg/Kg/day IP, three consecutive days
  tumor volume on day 13: 126±119 mm^3
[10]; small tumors, MPG disulfide alone 40 mg/Kg/day IP, to day 13
  growth of small size tumors: completely inhibited the growth
[10]; small tumors, MPG disulfide alone group, baseline
  tumor volume on the day of treatment: 139±4.29 mm^3
